Results published in ChEMBL document CHEMBL1201862, “PubChem BioAssay data set” (2004).
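Protocol summary: plate cells (96-well), add compound at 5 concentrations, incubate 48 h, interpolate endpoints linearly. GI50 marks 50% less growth.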 The source made the active and inactive calls. No stated cut-off is given here; in the data, active = GI50 up to about 1.1 µM and inactive = higher.

Assays:
Test in all cases: NCI anticancer screen, dose series, 48 h
[1] = test system: HCC 2998
[2] = test system: U-251
[3] = test system: SNB-19
[4] = test system: SF-295
[5] = test system: HOP-92
[6] = test system: OVCAR-5
[7] = test system: SK-MEL-2
[8] = test system: UACC-62
[9] = test system: CAKI-1
[10] = test system: KM12
[11] = test system: MOLT-4
[12] = test system: SN12C
[13] = test system: 786-0
[14] = test system: HL-60
[15] = test system: SNB-78
[16] = test system: SW-620
[17] = test system: COLO 205
[18] = test system: NCI-H226

Measured: GI50

Cc1nc2c(o1)/C(=N\c1ccccc1)c1ccccc1C2=O
inactive: [1] 18.6 µM | [2] 3.61 µM | [3] 11.5 µM | [4] 16.5 µM | [5] 12.3 µM | [6] 18.5 µM | [7] 4.86 µM | [8] 3.37 µM | [9] 18.4 µM | [10] 15.1 µM | [11] 18 µM | [12] 10.1 µM | [13] 15.2 µM | [14] 3.3 µM | [15] 6.81 µM | [16] 10.7 µM | [17] 15.8 µM

O=C1c2ccccc2C(=O)C1(Cl)C1(S(=O)(=O)O)c2ccccc2-c2ccccc21
inactive: [18] > 100 µM | [1] > 100 µM | [2] > 100 µM | [4] > 100 µM | [5] > 100 µM | [6] > 100 µM | [8] > 100 µM | [9] > 100 µM | [10] > 100 µM | [11] > 100 µM | [12] > 100 µM | [13] > 100 µM | [14] > 100 µM | [15] > 100 µM | [16] > 100 µM | [17] > 100 µM

CC(=O)c1ccc(NC(=O)C(=O)C(C(=O)c2ccc(Cl)c(Cl)c2)C2OC(=O)c3ccccc32)cc1 (centres undefined)
inactive: [18] 5.15 µM | [1] 13.7 µM | [2] 10.1 µM | [3] 25.5 µM | [5] 24.5 µM | [6] 21.5 µM | [8] 19.4 µM | [9] 14.6 µM | [10] 20.1 µM | [11] > 100 µM | [12] 21.6 µM | [13] 16.1 µM | [14] 28.1 µM | [15] 12.9 µM | [16] 21.2 µM | [17] 15.1 µM

O=P(CN1CCOCC1)(c1ccccc1)c1ccccc1
inactive: [2] > 100 µM | [3] > 100 µM | [4] > 100 µM | [5] > 100 µM | [6] > 100 µM | [7] > 100 µM | [8] > 100 µM | [9] > 100 µM | [10] > 100 µM | [11] > 100 µM | [12] > 100 µM | [13] > 100 µM | [14] > 100 µM | [15] > 100 µM | [16] > 100 µM | [17] > 100 µM

Cc1c2n(c(=O)[nH]c1=O)C1OC(CO)C(O2)C1N=[N+]=[N-] (centres undefined)
inactive: [18] > 100 µM | [2] > 100 µM | [3] > 100 µM | [4] > 100 µM | [5] > 100 µM | [7] > 100 µM | [8] > 100 µM | [9] > 100 µM | [10] > 100 µM | [11] > 100 µM | [12] > 100 µM | [13] > 100 µM | [14] > 100 µM | [15] > 100 µM | [16] > 100 µM | [17] > 100 µM

O=[N+]([O-])c1ccc(Sc2c3ccccc3nc3ccccc23)cc1
inactive: [18] > 100 µM | [1] > 100 µM | [2] > 100 µM | [3] > 100 µM | [4] > 100 µM | [6] > 100 µM | [7] > 100 µM | [8] > 100 µM | [9] > 100 µM | [10] > 100 µM | [11] > 100 µM | [12] > 100 µM | [13] > 100 µM | [14] 46.5 µM | [15] > 100 µM | [16] > 100 µM | [17] > 100 µM

COC1=C2C[C@H](O)C(C)C[C@@]2(OC)OC1=O (some centres undefined)
inactive: [1] > 100 µM | [2] > 100 µM | [3] > 100 µM | [4] > 100 µM | [5] > 100 µM | [7] > 100 µM | [8] > 100 µM | [9] > 100 µM | [10] > 100 µM | [11] > 100 µM | [12] > 100 µM | [13] > 100 µM | [14] > 100 µM | [15] > 100 µM | [16] > 100 µM | [17] > 100 µM
